SMILES strings stand for the structures. pKi: −log10 of the molar value.

soluble human BACE1 catalytic domain, sequence (P56817 75-416): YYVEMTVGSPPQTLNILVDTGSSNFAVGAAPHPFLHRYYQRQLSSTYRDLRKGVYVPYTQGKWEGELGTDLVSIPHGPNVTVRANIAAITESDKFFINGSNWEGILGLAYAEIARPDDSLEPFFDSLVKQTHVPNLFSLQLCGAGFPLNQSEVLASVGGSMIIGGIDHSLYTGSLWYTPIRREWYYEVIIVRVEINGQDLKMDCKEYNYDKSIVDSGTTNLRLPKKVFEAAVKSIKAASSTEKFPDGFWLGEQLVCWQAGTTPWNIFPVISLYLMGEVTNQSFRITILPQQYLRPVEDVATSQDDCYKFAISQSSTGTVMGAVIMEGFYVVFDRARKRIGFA

The first test concerns the target soluble human BACE1 catalytic domain (Homo sapiens (Human), UniProt P56817). Briefly: BACE1 HTRF FRET Assay. To be noted: BACE1 Ki (nM).
As to `C[C@@]1(c2sc(-c3nnc(-c4ccc(Cl)cc4)o3)cc2F)CS(=O)(=O)[C@@](C)(c2ccccn2)C(=N)N1` [Example 27bz-b], the affinity corresponds to a Ki of 791 nM.

The test is the same for the next values; noted with them: BACE1 Ki (nM), Ki calculated from IC50 using the Cheng-Prusoff equation.
Turning to `CC1(C)C(=N)N[C@](C)(c2cc(NC(=O)c3ncc(F)cc3F)ccc2F)CS1(=O)=O` [Example 2], the Ki was < 5 nM.

The same test, now with this note: read-out: BACE1 % Inh. at 10 μM, at 10 μM.
Turning to `COc1cccc2cc(-c3ccc(F)c([C@]4(C)CS(=O)(=O)C(C)(C)C(=N)N4)n3)[nH]c12` [Example 16e], the inhibition at 10 µM stood at 31%.

Still in this test, the particulars now being: read-out: BACE1 Ki.
As to `COc1cccc([C@@]2(C)C(=N)N[C@](C)(c3cc(F)ccc3F)CS2(=O)=O)c1` [Example 32e-a], the pKi is 5.96. With `CC1(C)C(=N)N[C@](C)(c2sc(-c3cn4ccsc4n3)cc2Cl)CS1(=O)=O` [Example 28b], the pKi is 5.58.

For `CC1(C)C(=N)N[C@](C)(c2sc(-c3ccnc(C4CC4)c3)cc2F)CS1(=O)=O` [Example 27av], the pKi was 6.18. On to `CC1(C)C(=N)N[C@](C)(c2sc(-c3coc(-c4ccc(F)cc4)n3)cc2Cl)CS1(=O)=O` [Example 27x], for which the pKi is 5.95. As to `C[C@@]1(c2sc(-c3cncc(C#N)c3)cc2F)CS(=O)(=O)[C@@](C)(c2ccccn2)C(=N)N1` [Example 27bq-a], the negative logarithm of the Ki (pKi) is 6.57. Consider `CC1(C)C(=N)N[C@](C)(c2sc(-c3cnc(-c4ccc(F)cc4)o3)cc2Cl)CS1(=O)=O` [Example 27v], for which the pKi is 7.15. With `COc1ncc(-c2cc(Cl)c([C@]3(C)CS(=O)(=O)C(C)(C)C(=N)N3)s2)cn1` [Example 27y], the pKi is 5.77. Take `CC1(C)C(=N)N[C@](C)(c2sc(-c3cncc(-c4nnco4)c3)cc2F)CS1(=O)=O` [Example 27az]: the pKi was 7.85.

On to `C[C@@]1(c2cccc(C(F)(F)F)c2)C(=N)N[C@](C)(c2ccc(F)cc2F)CS1(=O)=O` [Example 32h-b], for which the pKi is 5.67. On to `CC1(C)C(=N)N[C@](C)(c2sc(-c3cncc(C#N)c3)cc2F)CS1(=O)=O` [Example 27ap], for which the pKi was 6.99.

As for `CC1(C)C(=N)N[C@](C)(c2cc(-c3cccc(-c4cnco4)c3)cs2)CS1(=O)=O` [Example 27ai], the pKi is 7.13. Regarding `CC1(C)C(=N)N[C@](C)(c2nc3ccc(-c4cccc(C#N)c4)cc3s2)CS1(=O)=O` [Example 29c], the pKi was 5.62. `CC1(C)C(=N)N[C@](C)(c2sc(-c3ccc(C#N)c(C(F)(F)F)c3)cc2Cl)CS1(=O)=O` [Example 27t]: the pKi was 6.54. Turning to `CC1(C)C(=N)N[C@](C)(c2sc(-c3cc(F)cc(F)c3)cc2Cl)CS1(=O)=O` [Example 27i], the pKi is 6.77. As for `Cc1nnc(-c2ccc(F)c(-c3cc(F)c([C@]4(C)CS(=O)(=O)C(C)(C)C(=N)N4)s3)c2)o1` [Example 27ax], the pKi is 6.07.

The same test, now with this note: read-out: BACE1 Ki; Ki calculated from IC50 using the Cheng-Prusoff equation.
With `CCC(=O)Nc1cc(F)c(F)c([C@]2(C)CS(=O)(=O)C(C)(C)C(=N)N2)c1` [Example 9be], the pKi is 6.37. In the case of `CC1(C)C(=N)N[C@](C)(c2sc(C(=O)NCc3ccc(C#N)cc3)cc2Cl)CS1(=O)=O` [Example 22m], the pKi was 5.99. For the compound `CC1(C)C(=N)N[C@](C)(c2nc(-c3ccc(C#N)s3)ccc2F)CS1(=O)=O` [Example 16c], the pKi is 5.45.

Consider `CC1(C)C(=N)N[C@](C)(c2cc(NC(=O)c3ncc(F)cc3F)ccc2F)CS1(=O)=O` [Example 2], for which the negative logarithm of the Ki (pKi) is 9.05.

Take `CC1(C)C(=N)N[C@](C)(c2cc(NC(=O)CC(F)(F)F)cc(F)c2F)CS1(=O)=O` [Example 9bc]: the pKi is 6.15.

Take `C[C@@]1(c2cc(NC(=O)c3ccc(Cl)cn3)ccc2F)CS(=O)(=O)[C@@](C)(c2ccccn2)C(=N)N1` [Example 9cw-a]: the pKi is 8.36. Consider `Cc1noc(C(=O)Nc2ccc(F)c([C@]3(C)CS(=O)(=O)C(C)(C)C(=N)N3)c2)n1` [Example 9h], for which the pKi was 8.57. Still for that read-out and setting: next, `CC1(C)C(=N)N[C@](C)(c2cc(NC(=O)c3ccn(C(F)F)n3)ccc2F)CS1(=O)=O` [Example 9j]: 9.22; `CC1(C)C(=N)N[C@](C)(c2cc(NC(=O)c3ccc(OC(F)F)cn3)ccc2F)CS1(=O)=O` [Example 9c]: 9.22; `C[C@@]1(c2cc(NC(=O)c3ccc(Cl)cn3)ccc2F)CS(=O)(=O)[C@](C)(CC2CC2)C(=N)N1` [Example 9di-b]: 7.81. Regarding `CC1(C)C(=N)N[C@](C)(c2sc(C(=O)NCc3cnoc3)cc2Cl)CS1(=O)=O` [Example 22q], the pKi was 6.45. For the compound `COc1cnc(C(=O)Nc2ccc(F)c([C@]3(C)CS(=O)(=O)[C@@](C)(C4CCOCC4)C(=N)N3)c2)cn1` [Example 9du-a], the pKi is 8.47. In the case of `COc1ccc(C(=O)Nc2ccc(F)c([C@]3(C)CS(=O)(=O)[C@](C)(CC4CC4)C(=N)N3)c2)nc1` [Example 9dj-b], the pKi is 7.57. Still for that read-out and setting: next, `CC1(C)C(=N)N[C@](C)(c2cc(NC(=O)c3ccc(F)cn3)cc(Cl)c2F)CS1(=O)=O` [Example 9s]: 8.20. Still for that read-out and setting: the figure for `COc1ccc(C(=O)Nc2ccc(F)c([C@]3(C)CS(=O)(=O)[C@](C)(c4cccc(F)c4)C(=N)N3)c2)nc1` [Example 9dc-b] is 6.67. With `CC1(C)C(=N)N[C@](C)(c2nc(NC(=O)c3ccncn3)ccc2F)CS1(=O)=O` [Example 9ch], the pKi is 7.00.

With `CC1(C)C(=N)N[C@](C)(c2cc(NC(=O)c3cocn3)ccc2F)CS1(=O)=O` [Example 9ap], the pKi was 7.41. Same read-out and setting: next, `CC1(C)C(=N)N[C@](C)(c2sc(C(=O)NCc3ncccn3)cc2Cl)CS1(=O)=O` [Example 22b]: 5.45. Turning to `CC1(C)C(=N)N[C@](C)(c2cc(NC(=O)C3CC3)ccc2F)CS1(=O)=O` [Example 9am], the pKi was 6.44. Take `CC1(C)C(=N)N[C@](C)(c2cc(NC(=O)c3ccc(C(F)(F)F)cn3)ccc2F)CS1(=O)=O` [Example 6]: the pKi was 9.15. `C[C@@]1(c2cc(NC(=O)c3ccc(F)cn3)ccc2F)CS(=O)(=O)[C@@](C)(c2cc(C(F)(F)F)ccn2)C(=N)N1` [Example 9ed-b]: the pKi is 7.82. For the compound `CC1(C(=O)Nc2ccc(F)c([C@]3(C)CS(=O)(=O)C(C)(C)C(=N)N3)c2)CC1` [Example 9aj], the pKi is 5.83.

With `CC1(C)C(=N)N[C@](C)(c2sc(C(=O)NCc3cccc(Cl)c3)cc2Cl)CS1(=O)=O` [Example 22l], the pKi is 5.90. As to `C[C@@]1(c2cc(NC(=O)c3ccc(F)cn3)ccc2F)CS(=O)(=O)[C@@](C)(c2cc(C(F)(F)F)ccn2)C(=N)N1` [Example 9ed-a], the pKi was 8.80. For `Cc1noc(CC(=O)Nc2ccc(F)c([C@]3(C)CS(=O)(=O)C(C)(C)C(=N)N3)c2)n1` [Example 9ao], the pKi was 5.49. As to `CC1(C)C(=N)N[C@](C)(c2sc(C(=O)NCC3CCC3)cc2Cl)CS1(=O)=O` [Example 22n], the pKi is 6.04. On to `Cc1ccc(C(=O)Nc2ccc(F)c([C@]3(C)CS(=O)(=O)C(C)(C)C(=N)N3)c2)nc1` [Example 4], for which the pKi was 8.10. Consider `CC1(C)C(=N)N[C@](C)(c2sc(-c3nnc(-c4ccccc4)o3)cc2Cl)CS1(=O)=O` [Example 27ba], for which the negative logarithm of the Ki (pKi) is 6.59. With `CC(=O)Nc1cc(F)c(F)c([C@]2(C)CS(=O)(=O)C(C)(C)C(=N)N2)c1` [Example 9bn], the negative-log Ki (pKi) is 5.99. `CC1(C)C(=N)N[C@](C)(c2c(F)c(F)cc(NC(=O)c3ccc(F)cn3)c2F)CS1(=O)=O` [Example 9aa]: the pKi was 7.45. The same measure, in the same setting: next, `C[C@]1(CC(F)(F)F)C(=N)N[C@](C)(c2cc(NC(=O)c3ccc(F)cn3)ccc2F)CS1(=O)=O` [Example 9dp-a]: 8.21. For the compound `COc1ccc(-c2nnc(-c3cc(Cl)c([C@]4(C)CS(=O)(=O)C(C)(C)C(=N)N4)s3)o2)cc1` [Example 27bd], the negative logarithm of the Ki (pKi) was 7.12.

Take `CC1(C)C(=N)N[C@](C)(c2nc(-c3cccc(C#N)c3)ccc2F)CS1(=O)=O` [Example 16b]: the pKi was 5.30. Regarding `COc1ccc(C(=O)Nc2ccc(F)c([C@]3(C)CS(=O)(=O)[C@@](C)(c4ccccn4)C(=N)N3)c2)nc1` [Example 9cx-a], the pKi is 8.15. `C[C@@]1(c2cc(NC(=O)c3ccc(F)cn3)ccc2F)CS(=O)(=O)[C@@](C)(c2ccccc2F)C(=N)N1` [Example 9dn-a]: the pKi was 7.67. In the case of `C[C@@]1(c2cc(NC(=O)c3ccc(F)cn3)ccc2F)CS(=O)(=O)[C@@](C)(C2CCOCC2)C(=N)N1` [Example 9ds-a], the negative-log Ki (pKi) was 8.46. Same read-out and setting: the figure for `CC1(C)C(=N)N[C@](C)(c2sc(C(=O)Nc3cccc(F)n3)cc2Cl)CS1(=O)=O` [Example 21] is 6.58; for `C[C@]1(CC2CCOCC2)C(=N)N[C@](C)(c2cc(NC(=O)c3ccc(Cl)cn3)ccc2F)CS1(=O)=O` [Example 9cs-a] it is 8.80; for `CC1(C)C(=N)N[C@](C)(c2cc(NC(=O)C3CCC3)cc(F)c2F)CS1(=O)=O` [Example 9bt] it is 6.14.

As to `COc1cnc(C(=O)Nc2cc(F)c(F)c([C@]3(C)CS(=O)(=O)C(C)(C)C(=N)N3)c2)c(F)c1` [Example 9o], the pKi was 8.52. For the compound `Cc1cccc(CNC(=O)c2cc(Cl)c([C@]3(C)CS(=O)(=O)C(C)(C)C(=N)N3)s2)n1` [Example 22c], the pKi was 5.10.

The test is the same for the next values; noted with them: read-out: BACE1 inhibition, % Inh. at 10 μM, at 10 μM.
On to `C[C@@]1(c2cc(N)ccc2F)CS(=O)(=O)[C@](C)(CC(F)(F)F)C(=N)N1` [Entry 36], for which the inhibition at 10 µM stood at 37%.

Turning to `CC1(C)C(=N)N[C@](C)(c2c(F)c(F)cc([N+](=O)[O-])c2F)CS1(=O)=O` [Entry 15], the inhibition at 10 µM is 45%. Turning to `C=CC[C@]1(C)C(=N)N[C@](C)(c2cc(N)ccc2F)CS1(=O)=O` [Entry 44], the inhibition at 10 µM stood at 38%.

Still in this test, the particulars now being: read-out: BACE1 inhibition, Ki.
With `C[C@@]1(c2cc(N)ccc2F)CS(=O)(=O)[C@@](C)(C2CCOCC2)C(=N)N1` [Entry 50], the pKi is 6.30. As to `C[C@@]1(c2sc(Br)cc2F)CS(=O)(=O)[C@@](C)(c2ccccn2)C(=N)N1` [Entry 85], the pKi is 5.82. Consider `C[C@@]1(c2cc(N)ccc2F)CS(=O)(=O)[C@@](C)(c2cc(C(F)(F)F)ccn2)C(=N)N1` [Entry 73], for which the pKi was 5.34.

In the case of `CC1(C)C(=N)N[C@](C)(c2cccc(Cl)c2F)CS1(=O)=O` [Entry 7], the pKi is 5.85.
